Experimental data as given in the NIST ThermoML archive (doi:10.1021/je300603d).

Legend:
[1] = 101 kPa, Liquid; for electrical conductivity: Alternating current cell with electrodes; for viscosity: Falling or rolling sphere viscometry; for mass density: Vibrating tube method
[2] = mn = molality of the nth substance listed, in mol/kg; settings: 101 kPa, Liquid, m2 = 0; for electrical conductivity: Alternating current cell with electrodes; for viscosity: Falling or rolling sphere viscometry; for mass density: Vibrating tube method

CCCCn1cc[n+](C)c1.F[B-](F)(F)F [1-butyl-3-methylimidazolium tetrafluoroborate]
[1]
Settings	electrical conductivity [S/m]	mass density [kg/m3]	viscosity [mPa·s]
238.15 K	0.00095	–	–
258.15 K	0.0227	–	–
278.15 K	0.113	1216.3	384.5
288.15 K	–	1209	197.7
298.15 K	0.353	1201.8	112.3
308.15 K	–	1194.6	68.89
318.15 K	0.826	1187.6	45.36
328.15 K	–	1180.6	31.49
338.15 K	1.548	1173.6	21.99
348.15 K	–	1166.7	16.54
358.15 K	2.53	1159.9	12.84
378.15 K	3.74	–	–
398.15 K	5.13	–	–
418.15 K	6.68	–	–
438.15 K	8.36	–	–
458.15 K	10.13	–	–

CCCCn1cc[n+](C)c1.F[B-](F)(F)F [1-butyl-3-methylimidazolium tetrafluoroborate] + F[B-](F)(F)F.[Na+]
[2]
Settings	electrical conductivity [S/m]	mass density [kg/m3]	viscosity [mPa·s]
238.15 K	0.00095	–	–
258.15 K	0.0227	–	–
278.15 K	0.113	1216.3	384.5
288.15 K	–	1209	197.7
298.15 K	0.353	1201.8	112.3
308.15 K	–	1194.6	68.89
318.15 K	0.826	1187.6	45.36
328.15 K	–	1180.6	31.49
338.15 K	1.548	1173.6	21.99
348.15 K	–	1166.7	16.54
358.15 K	2.53	1159.9	12.84
378.15 K	3.74	–	–
398.15 K	5.13	–	–
418.15 K	6.68	–	–
438.15 K	8.36	–	–
458.15 K	10.13	–	–
